Measured values from patent publication US8536332B2, “Modulating signal transduction pathways with substituted pyridol [2,3-b] pyrazines” (Aeterna Zentaris GmbH, priority 2007, dated 2013).

| SMILES | melting point [°C] |
| --- | --- |
| CCNC(=O)Nc1ccc2ncc(-c3cccc(Cl)c3F)nc2n1 [Compound 99, 1-[3-(3-Chloro-2-fluoro-phenyl)-pyrido[2,3-b]pyrazin-6-yl]-3-ethyl-urea] | 275 |
| CCNC(=O)Nc1ccc2ncc(-c3ccccc3OCC)nc2n1 [Compound 102, 1-[3-(2-Ethoxy-phenyl)-pyrido[2,3-b]pyrazin-6-yl]-3-ethyl-urea] | 220 to 222 |
| CCNC(=O)Nc1ccc2ncc(-c3ccccc3F)nc2n1 [Compound 103, 1-Ethyl-3-[3-(2-fluoro-phenyl)-pyrido[2,3-b]pyrazin-6-yl]-urea] | 226 to 228 |
| CCNC(=O)Nc1ccc2ncc(-c3ccccc3Cl)nc2n1 [Compound 104, 1-[3-(2-Chloro-phenyl)-pyrido[2,3-b]pyrazin-6-yl]-3-ethyl-urea] | 310 |
| CCNC(=O)Nc1ccc2ncc(-c3cccc(Cl)c3Cl)nc2n1 [Compound 108, 1-[3-(2,3-Dichloro-phenyl)-pyrido[2,3-b]pyrazin-6-yl]-3-ethyl-urea] | > 350 |
| CCNC(=O)Nc1ccc2ncc(-c3cc(C)cc(Br)c3OCc3ccccc3)nc2n1 [Compound 109, 1-[3-(2-Benzyloxy-3-bromo-5-methyl-phenyl)-pyrido[2,3-b]pyrazin-6-yl]-3-ethyl-urea] | 236 to 238 |
| CCNC(=O)Nc1ccc2ncc(-c3cc(C)cc(Br)c3OC)nc2n1 [Compound 110, 1-[3-(3-Bromo-2-methoxy-5-methyl-phenyl)-pyrido[2,3-b]pyrazin-6-yl]-3-ethyl-urea] | 228 to 230 |
| CCNC(=O)Nc1ccc2ncc(-c3ccc(F)cc3OCC)nc2n1 [Compound 112, 1-[3-(2-Ethoxy-4-fluoro-phenyl)-pyrido [2,3-b]pyrazin-6-yl]-3-ethyl-urea] | 229 to 231 |
| CCNC(=O)Nc1ccc2ncc(-c3cccc(-c4ccccc4)c3)nc2n1 [Compound 116, 1-(3-Biphenyl-3-yl-pyrido[2,3-b]pyrazin-6-yl)-3-ethyl-urea] | 251 to 255 |
| CCNC(=O)Nc1ccc2ncc(-c3ccc(-c4ccccc4)cc3)nc2n1 [Compound 123, 1-(3-Biphenyl-4-yl-pyrido[2,3-b]pyrazin-6-yl)-3-ethyl-urea] | 280 |
| CCNC(=O)Nc1ccc2ncc(-c3ccc(N(c4ccccc4)c4ccccc4)cc3)nc2n1 [Compound 128, 1-[3-(4-Diphenylamino-phenyl)-pyrido[2,3-b]pyrazin-6-yl]-3-ethyl-urea] | 269 to 273 |
| CCNC(=O)Nc1ccc2ncc(-c3ccc([N+](=O)[O-])cc3)nc2n1 [Compound 131, 1-Ethyl-3-[3-(4-nitro-phenyl)-pyrido[2,3-b]pyrazin-6-yl]-urea] | > 350 |
| CCNC(=O)Nc1ccc2ncc(-c3ccc(C(=O)OC)cc3)nc2n1 [Compound 132, 4-[6-(3-Ethyl-ureido)-pyrido[2,3-b]pyrazin-3-yl]-benzoic acid methyl ester] | 260 |
| CCCOc1ccc(-c2cnc3ccc(NC(=O)NCC)nc3n2)cc1 [Compound 133, 1-Ethyl-3-[3-(4-propoxy-phenyl)-pyrido[2,3-b]pyrazin-6-yl]-urea] | 258.7 |
| CCNC(=O)Nc1ccc2ncc(-c3c(F)cccc3OC)nc2n1 [Compound 137] | 236 to 239 |
| CCNC(=O)Nc1ccc2ncc(-c3ccsc3)nc2n1 [Compound 141, 1-Ethyl-3-(3-thiophen-3-yl-pyrido[2,3-b]pyrazin-6-yl)-urea] | 250 |
| CCNC(=O)Nc1ccc2ncc(-c3ccc(C(=O)OC)c(F)c3)nc2n1 [Compound 143, 4-[6-(3-Ethyl-ureido)-pyrido[2,3-b]pyrazin-3-yl]-2-fluoro-benzoic acid methyl ester] | 250 to 252 |
| CCNC(=O)Nc1ccc2ncc(-c3cc(OC)ccc3OC)nc2n1 [Compound 145, 1-[3-(2,5-Dimethoxy-phenyl)-pyrido[2,3-b]pyrazin-6-yl]-3-ethyl-urea] | 207 to 209 |
| CCNC(=O)Nc1ccc2ncc(-c3cccc(OCC)c3F)nc2n1 [Compound 146, 1-[3-(3-Ethoxy-2-fluoro-phenyl)-pyrido[2,3-b]pyrazin-6-yl]-3-ethyl-urea] | 202 to 204 |
| CCNC(=O)Nc1ccc2ncc(-c3cc(C)c(C)c(C)c3)nc2n1 [Compound 151, 1-Ethyl-3-[3-(3,4,5-trimethyl-phenyl)-pyrido[2,3-b]pyrazin-6-yl]-urea] | 228 to 233 |
| CCNC(=O)Nc1ccc2ncc(Nc3ccccc3OC)nc2n1 [Compound 153, 1-Ethyl-3-[3-(2-methoxy-phenylamino)-pyrido[2,3-b]pyrazin-6-yl]-urea] | 225 |
| CCNC(=O)Nc1ccc2ncc(Nc3cccc(CO)c3)nc2n1 [Compound 154, 1-Ethyl-3-[3-(3-hydroxymethyl-phenylamino)-pyrido[2,3-b]pyrazin-6-yl]-urea] | 238 |
| CCNC(=O)Nc1ccc2ncc(Nc3cccc(Oc4ccccc4)c3)nc2n1 [Compound 155, 1-Ethyl-3-[3-(3-phenoxy-phenylamino)-pyrido[2,3-b]pyrazin-6-yl]-urea] | 230 |

More lines, now with the values ahead:

| melting point [°C] | SMILES |
| --- | --- |
| 223 to 225 | CCNC(=O)Nc1ccc2ncc(-c3ccc(OC)cc3C)nc2n1 [Compound 98, 1-Ethyl-3-[3-(4-methoxy-2-methyl-phenyl)-pyrido[2,3-b]pyrazin-6-yl]-urea] |
| 232 to 234 | CCNC(=O)Nc1ccc2ncc(-c3cccc(C)c3)nc2n1 [Compound 100, 1-Ethyl-3-(3-m-tolyl-pyrido[2,3-b]pyrazin-6-yl)-urea] |
| 249 to 253 | CCNC(=O)Nc1ccc2ncc(-c3cccc([N+](=O)[O-])c3)nc2n1 [Compound 101, 1-Ethyl-3-[3-(3-nitro-phenyl)-pyrido[2,3-b]pyrazin-6-yl]-urea] |
| 218 to 220 | CCNC(=O)Nc1ccc2ncc(-c3ccccc3C)nc2n1 [Compound 105, 1-Ethyl-3-(3-o-tolyl-pyrido[2,3-b]pyrazin-6-yl)-urea] |
| 260 | CCNC(=O)Nc1ccc2ncc(-c3cccc(C)c3C)nc2n1 [Compound 107, 1-[3-(2,3-Dimethyl-phenyl)-pyrido[2,3-b]pyrazin-6-yl]-3-ethyl-urea] |
| 262 to 264 | CCNC(=O)Nc1ccc2ncc(-c3cccc(Cl)c3)nc2n1 [Compound 111, 1-[3-(3-Chloro-phenyl)-pyrido[2,3-b]pyrazin-6-yl]-3-ethyl-urea] |
| 253 to 257 | CCNC(=O)Nc1ccc2ncc(-c3cccc(C#N)c3)nc2n1 [Compound 114, 1-[3-(3-Cyano-phenyl)-pyrido[2,3-b]pyrazin-6-yl]-3-ethyl-urea] |
| 200 to 202 | CCNC(=O)Nc1ccc2ncc(-c3cccc(CO)c3)nc2n1 [Compound 115, 1-Ethyl-3-[3-(3-hydroxymethyl-phenyl)-pyrido[2,3-b]pyrazin-6-yl]-urea] |
| 221 to 224 | CCNC(=O)Nc1ccc2ncc(-c3cccc(SC)c3)nc2n1 [Compound 117, 1-Ethyl-3-[3-(3-methylsulfanyl-phenyl)-pyrido[2,3-b]pyrazin-6-yl]-urea] |
| 239 to 240 | CCNC(=O)Nc1ccc2ncc(-c3cccc(OC(F)(F)F)c3)nc2n1 [Compound 118, 1-Ethyl-3-[3-(3-trifluoromethoxy-phenyl)-pyrido[2,3-b]pyrazin-6-yl]-urea] |
| 222 to 223 | CCNC(=O)Nc1ccc2ncc(-c3cccc(C(=O)OCC)c3)nc2n1 [Compound 119, 3-[6-(3-Ethyl-ureido)-pyrido[2,3-b]pyrazin-3-yl]-benzoic acid ethyl ester] |
| 224 to 228 | CCNC(=O)Nc1ccc2ncc(-c3cccc(NS(C)(=O)=O)c3)nc2n1 [Compound 120, N-{3-[6-(3-Ethyl-ureido)-pyrido[2,3-b]pyrazin-3-yl]-phenyl}-methanesulfonamide] |
| 212 to 217 | CCNC(=O)Nc1ccc2ncc(-c3cccc(OCc4cc(OC)cc(OC)c4)c3)nc2n1 [Compound 121, 1-{3-[3-(3,5-Dimethoxy-benzyloxy)-phenyl]-pyrido[2,3-b]pyrazin-6-yl}-3-ethyl-urea] |
| 244 to 247 | CCNC(=O)Nc1ccc2ncc(-c3ccc(Cl)cc3)nc2n1 [Compound 122, 1-[3-(4-Chloro-phenyl)-pyrido[2,3-b]pyrazin-6-yl]-3-ethyl-urea] |
| 246 | CCNC(=S)Nc1ccc2ncc(-c3ccc(C)cc3)nc2n1 [Compound 124, 1-Ethyl-3-(3-p-tolyl-pyrido[2,3-b]pyrazin-6-yl)-thiourea] |
| 244 | CCNC(=S)Nc1ccc2ncc(-c3cc(C)c(O)c(C)c3)nc2n1 [Compound 125, 1-Ethyl-3-[3-(4-hydroxy-3,5-dimethyl-phenyl)-pyrido[2,3-b]pyrazin-6-yl]-thiourea] |
| 227 | CCNC(=S)Nc1ccc2ncc(-c3cccc(OC(C)C)c3)nc2n1 [Compound 127, 1-Ethyl-3-[3-(3-isopropoxy-phenyl)-pyrido[2,3-b]pyrazin-6-yl]-thiourea] |
| 283 to 286 | CCNC(=O)Nc1ccc2ncc(-c3cccc(F)c3)nc2n1 [Compound 129, 1-Ethyl-3-[3-(3-fluoro-phenyl)-pyrido[2,3-b]pyrazin-6-yl]-urea] |
| 220 to 223 | CCNC(=O)Nc1ccc2ncc(-c3cccc(OCC)c3)nc2n1 [Compound 130, 1-[3-(3-Ethoxy-phenyl)-pyrido[2,3-b]pyrazin-6-yl]-3-ethyl-urea] |
| 182 to 185 | CCNC(=O)Nc1ccc2ncc(-c3ccccc3SC)nc2n1 [Compound 135, 1-Ethyl-3-[3-(2-methylsulfanyl-phenyl)-pyrido[2,3-b]pyrazin-6-yl]-urea] |
| 247 to 249 | CCNC(=O)Nc1ccc2ncc(-c3ccc(C)c(C)c3)nc2n1 [Compound 142, 1-[3-(3,4-Dimethyl-phenyl)-pyrido[2,3-b]pyrazin-6-yl]-3-ethyl-urea] |
| 240 to 244 | CCNC(=O)Nc1ccc2ncc(-c3cccc(N(C)C)c3)nc2n1 [Compound 144, 1-[3-(3-Dimethylamino-phenyl)-pyrido[2,3-b]pyrazin-6-yl]-3-ethyl-urea] |
| 280 | CCNC(=S)Nc1ccc2ncc(Nc3ccccc3O)nc2n1 [Compound 149, 1-Ethyl-3-[3-(2-hydroxy-phenylamino)-pyrido[2,3-b]pyrazin-6-yl]-thiourea] |
